Reference: patent US11185077B2, “Attractants for rodents” (priority 2016, dated 2021)

Test system: wild house mice, Mus musculus
Experiment: Field experiments with paired trap boxes: trap captures of wild mice
Assay type: in vivo
Description: Two field experiments were run in parallel from Feb. 4, 2016 to Apr. 14, 2016 in Vancouver B.C. to evaluate the effect of synthetic androstenone (Experiment 7) and of synthetic progesterone and estrogen (Experiment 8) on trap captures of wild mice. Experimental replicates were set up as depicted in FIG. 7 along the interior walls and bird feeder areas of a plant and bird conservatory maintained under tropical conditions. Each replicate consisted of a pair of trap boxes (PROTECTA® Mouse, Bell Laboratories Inc., Madison, Wis. 53704, USA), with 50-cm spacing between boxes in each pair, and at least 2 m between pairs.
In Experiments 7 and 8, each box in each pair contained a snap trap (1) (FIG. 7) that was baited with a food lure (Musso et al. 2014). In Experiment 7, the trap box was also baited with the synthetic two-component sex pheromone of male mice (3,4-dehydro-exo-brevicomin and 2-sec-butyl-4,5-dihydrothiazole). The compounds were formulated in 10 g of mineral oil and dispensed from a custom-made scintillation vial (2) (FIG. 7). Each box in each pair also contained a piece of Whatman #1 filter paper that by random assignment was treated with 4 μg of synthetic androstenone dissolved in 50 μl ether (3a) or 50 μl ether (control; 4). […]
All boxes and snap traps in both experiments were checked every 48 h to 72 h, and test stimuli (food lure, male-specific pheromone blend in mineral oil, filter paper with or without hormones) were replaced at each visit.
Mouse captures in treatment and control traps were compared against an expected 50:50 distribution using χ^2 tests with Yates' correction for continuity (α=0.05). Replicates with captures in both trap boxes of a pair are not included in the graphical illustration and statistical analyses of data.
Four field experiments were run in Vancouver B.C. to evaluate the effect of synthetic androstenone and synthetic testosterone on captures of female wild mice and rats in combination with species-specific male sex pheromone blend. Experimental replicates were set up along the interior and exterior walls of buildings as depicted in FIG. 7. Experiment 15 evaluated captures of wild mice in trap boxes baited with high-levels of androstenone; Experiment 16 evaluated captures of wild rats in traps baited with high-levels of androstenone; Experiment 17 evaluated captures of wild mice in traps baited with low-levels of testosterone; and Experiment 18 evaluated captures of wild mice in traps baited with low-levels of androstenone. Experiment 15 was run from Feb. 4, 2016 to Apr. 14, 2016. Experiment 16 was run from Feb. 26, 2016 to Sep. 19, 2016. Experiments 17 and 18 were run in parallel from Jun. 2, 2016 to Sep. 8, 2016.
Each replicate of Experiments 15 to 18 consisted of a pair of trap boxes (Mice: PROTECTA® Mouse, Bell Laboratories Inc., Madison, Wis. 53704, USA; Rats: PROTECTA® Sidekick™; Bell Laboratories Inc., Madison, Wis. 53704), with 50-cm spacing between boxes in each pair, and at least 2 m between pairs. Each trap box contained an armed snap trap (1, Mice: Victor® Easy Set® Mouse Trap; Rats: Victor® Easy Set® Rat Trap; Woodstream Corp, Lititz, Pa. 17543, USA) baited with a cereal-based food bait and a scintillation vial (2) containing synthetic sex pheromone blends. Each box in each pair also contained a treatment stimulus that consisted of a piece of Whatman #1 filter paper (3a) that by random assignment was treated with: 4 μg of synthetic androstenone dissolved in 50 μl ether (Experiments 15 and 16); 750 μg of synthetic testosterone dissolved in 50 μl ether (Experiment 17); or 750 μg of synthetic androstenone dissolved in 50 μl ether (Experiment 18). The corresponding box in each pair contained a control stimulus which consisted of a piece of Whatman #1 filter paper (3b) treated with 50 μl ether. […]

[1] = Experiment 7, 4 μg synthetic androstenone, boxes also with food lure and male mouse sex pheromone
[2] = Experiment 15, 4 μg synthetic androstenone, with food bait and male mouse sex pheromone blend
[3] = Experiment 17, 750 μg synthetic testosterone (low-levels), with food bait and male mouse sex pheromone blend

| SMILES | captures of adult female mice vs control boxes [1] | captures of juvenile female mice vs control boxes [1] | captures of juvenile and adult male mice (Experiment 15, 4 μg synthetic androstenone) | captures of adult female mice vs control boxes [2] | captures of juvenile female mice vs control boxes [2] | captures of juvenile and adult male mice (Experiment 18, 750 μg synthetic androstenone (low-levels)) | captures of female mice vs control traps (Experiment 18, 750 μg synthetic androstenone (low-levels), with food bait and male mouse sex pheromone blend) | captures of both adult and juvenile mice (Experiment 17, 750 μg synthetic testosterone (low-levels)) | captures of adult female mice vs control traps [3] | captures of juvenile female mice vs control traps [3] |
| --- | --- | --- | --- | --- | --- | --- | --- | --- | --- | --- |
| C[C@]12CCC(=O)C[C@@H]1CC[C@@H]1[C@@H]2CC[C@]2(C)C=CC[C@@H]12 [androstenone, 5α-androst-16-en-3-one] | significantly more | significantly more | no significant effect | significantly more | significantly more | no significant effect | did not differ statistically | – | – | – |
| C[C@]12CC[C@H]3[C@@H](CCC4=CC(=O)CC[C@@]43C)[C@@H]1CC[C@@H]2O [testosterone, (8R,9S,10R,13S,14S,17S)-17-hydroxy-10,13-dimethyl-1,2,6,7,8,9,11,12,14,15,16,17-dodecahydrocyclopenta[a]phenanthren-3-one, reference compound] | – | – | – | – | – | – | – | no significant effect | significantly more | significantly more |
